Results on 33 compounds are retold here after publication PMC10922772 (ACS infectious diseases, 2024).

Where “and” joins values, the source holds several entries; their conditions need not be identical. Equal entries are not always repeated.

The first assay concerns the target SARS-CoV-2 Mpro (Severe acute respiratory syndrome coronavirus 2, UniProt P0DTD1). Nature of the assay: biochemical. The conditions noted are these: IC50, enzyme 100 nM, substrate 20 μM, 10 min preincubation, pH 6.5.
As to `CC(C)(C)c1ccc(N(C(=O)C2CO2)C(C(=O)NC2CCCCC2)c2cccnc2)cc1` [(R, R)- and (S, S)-30, N-(4-(tert-Butyl)phenyl)-N-(2-(cyclohexylamino)-2-oxo-1-(pyridin-3-yl)ethyl)oxirane-2-carboxamide], half-maximal inhibition (IC50) required 9.9 ± 1.6 µM. In the case of `CC1OC1C(=O)N(c1ccc(C(C)(C)C)cc1)C(C(=O)NC(C)(C)C)c1cccnc1` [(R, R, S)- and (S, S, R)-39, N-(4-(tert-Butyl)phenyl)-N-(2-(tert-butylamino)-2-oxo-1-(pyridin-3-yl)ethyl)-3-methyloxirane-2-carboxamide], the IC50 turned out to be 5.32 ± 0.64 µM. Compared with the last compound, the IC50 is about 1.9-fold lower.

`CC(C)(C)NC(=O)C(c1cccnc1)N(C(=O)C1CO1)c1ccc(C(C)(C)C)cc1` [(R, S)- and (S, R)-38, N-(4-(tert-Butyl)phenyl)-N-(2-(tert-butylamino)-2-oxo-1-(pyridin-3-yl)ethyl)oxirane-2-carboxamide]: the IC50 is 1.2 µM and 1.24 µM. `CC(C)(C)c1ccc(N(C(=O)C2CO2)C(C(=O)NCc2ccccc2)c2cccnc2)cc1` [(R, S)- and (S, R)-42, N-(2-(Benzylamino)-2-oxo-1-(pyridin-3-yl)ethyl)-N-(4-(tert-butyl)phenyl)oxirane-2-carboxamide] gave an IC50 of 1.6 ± 0.32 µM.

Turning to `CC1OC1C(=O)N(c1ccc(C(C)(C)C)cc1)C(C(=O)NC(C)(C)C)c1cccnc1` [(R, S, R)- and (S, R, S)-39, N-(4-(tert-Butyl)phenyl)-N-(2-(tert-butylamino)-2-oxo-1-(pyridin-3-yl)ethyl)-3-methyloxirane-2-carboxamide], it took 4.33 ± 0.32 µM to reach half-maximal inhibition (IC50). `O=C(NCc1ccccc1)C(c1cccnc1)N(C(=O)c1ccco1)c1ccc(-c2ccccc2)cc1` (stereo not drawn) [Compound 1, N-([1,1’-Biphenyl]-4-yl)-N-(2-(benzylamino)-2-oxo-1-(pyridin-3-yl)ethyl)furan-2-carboxamide]: the IC50 was determined as 0.74 ± 0.07 µM. Consider `O=C(CCl)Nc1ccc(N(C(=O)c2ccco2)C(C(=O)NCc2ccccc2)c2cccnc2)cc1` (stereo not drawn) [Compound 5, N-(2-(Benzylamino)-2-oxo-1-(pyridin-3-yl)ethyl)-N-(4-(2-chloroacetamido)phenyl)furan-2-carboxamide], for which the IC50 was around 20 µM.

In turn, `O=C(CCl)Nc1cccc(N(C(=O)c2ccco2)C(C(=O)NCc2ccccc2)c2cccnc2)c1` (stereo not drawn) [Compound 8, N-(2-(Benzylamino)-2-oxo-1-(pyridin-3-yl)ethyl)-N-(3-(2-chloroacetamido)phenyl)furan-2-carboxamide] registered an IC50 of around 20 µM. `CC(C)(C)NC(=O)C(c1cccnc1)N(C(=O)CCl)c1ccc(-c2ccccc2)cc1` (stereo not drawn) [Compound 14, N-([1,1’-Biphenyl]-4-yl)-N-(2-(tert-butylamino)-2-oxo-1-(pyridin-3-yl)ethyl)-2-chloroacetamide]: the IC50 is 0.95 ± 0.04 µM.

Take `CC(C)(C)NC(=O)C(c1cccnc1)N(C(=O)CCl)c1ccc(NC(=O)CCl)cc1` (stereo not drawn) [Compound 15, N-(tert-Butyl)-2-(2-chloro-N-(4-(2-chloroacetamido)phenyl)acetamido)-2-(pyridin-3-yl)acetamide]: the IC50 was found to be 3.2 ± 0.79 µM. Against the preceding compound, the IC50 is about 3.4-fold higher. Same read-out and setting: as for `CC(C)(C)NC(=O)C(c1cccnc1)N(C(=O)CCl)c1ccc(NC(=O)C(Cl)Cl)cc1` (stereo not drawn) [Compound 16, N-(tert-Butyl)-2-(2-chloro-N-(4-(2,2-dichloroacetamido)phenyl)acetamido)-2-(pyridin-3-yl)acetamide], the figure is 3.6 ± 0.19 µM. For the compound `CC(C)(C)NC(=O)C(c1cccnc1)N(C(=O)CCl)c1ccc(CC2CO2)cc1` (stereo not drawn) [Compound 17, N-(tert-Butyl)-2-(2-chloro-N-(4-(oxiran-2-ylmethyl)phenyl)acetamido)-2-(pyridin-3-yl)acetamide], the midpoint of inhibition, the IC50, lay at 3.6 ± 0.3 µM.

`CC(C)(C)NC(=O)C(c1cccnc1)N(C(=O)CCl)c1cccc(NC(=O)CCl)c1` (stereo not drawn) [Compound 18, N-(tert-Butyl)-2-(2-chloro-N-(3-(2-chloroacetamido)phenyl)acetamido)-2-(pyridin-3-yl)acetamide] came in with an IC50 of 3.6 ± 0.6 µM. Still for that read-out and setting: as for `CC(C)(C)NC(=O)C(c1cccnc1)N(C(=O)CCl)c1cccc(NC(=O)C(Cl)Cl)c1` (stereo not drawn) [Compound 19, N-(tert-Butyl)-2-(2-chloro-N-(3-(2,2-dichloroacetamido)phenyl)acetamido)-2-(pyridin-3-yl)acetamide], the figure is 2.2 ± 0.51 µM; as for `COc1ccc(N(C(=O)CCl)C(C(=O)NC(C)(C)C)c2cccnc2)cc1` (stereo not drawn) [Compound 22, N-(tert-Butyl)-2-(2-chloro-N-(4-methoxyphenyl)acetamido)-2-(pyridin-3-yl)acetamide], 1.6 µM and 1.61 µM. Take `CCCCNC(=O)C(c1cccnc1)N(C(=O)CCl)c1ccc(C(C)(C)C)cc1` (stereo not drawn) [Compound 24, N-Butyl-2-(N-(4-(tert-butyl)phenyl)-2-chloroacetamido)-2-(pyridin-3-yl)acetamide]: the IC50 came out at 2.4 ± 0.3 µM. As for `CC(C)(C)c1ccc(N(C(=O)CCl)C(C(=O)NC2CCCCC2)c2cccnc2)cc1` (stereo not drawn) [Compound 26, N-(4-(tert-Butyl)phenyl)-2-chloro-N-(2-(cyclohexylamino)-2-oxo-1-(pyridin-3-yl)ethyl)acetamide], half-maximal inhibition (IC50) required 0.49 ± 0.22 µM.

Still in this assay, the particulars now being: IC50 compared with compound 13.
Turning to `CC(C)(C)NC(=O)C(c1cccnc1)N(C(=O)CCl)c1ccc(NC(=O)CCl)cc1` (stereo not drawn) [Compound 15, N-(tert-Butyl)-2-(2-chloro-N-(4-(2-chloroacetamido)phenyl)acetamido)-2-(pyridin-3-yl)acetamide], the “fold less active than compound 13” value is on record as ~ 5 ×. As for `CC(C)(C)NC(=O)C(c1cccnc1)N(C(=O)CCl)c1ccc(NC(=O)C(Cl)Cl)cc1` (stereo not drawn) [Compound 16, N-(tert-Butyl)-2-(2-chloro-N-(4-(2,2-dichloroacetamido)phenyl)acetamido)-2-(pyridin-3-yl)acetamide], the “fold less active than compound 13” value is reported as ~ 5 ×.

Staying with this assay, now noted: between the two diastereomers of the same compound.
For `CC(C)(C)c1ccc(N(C(=O)C2CO2)C(C(=O)NC2CCCCC2)c2cccnc2)cc1` [(R, R)- and (S, S)-30, N-(4-(tert-Butyl)phenyl)-N-(2-(cyclohexylamino)-2-oxo-1-(pyridin-3-yl)ethyl)oxirane-2-carboxamide], the “fold less active than the other (more active) diastereomer” value is 13 ×.

`CC1OC1C(=O)N(c1ccc(C(C)(C)C)cc1)C(C(=O)NC1CCCCC1)c1cccnc1` [(R, R, S)- and (S, S, R)-35, N-(4-(tert-Butyl)phenyl)-N-(2-(cyclohexylamino)-2-oxo-1-(pyridin-3-yl)ethyl)-3-methyloxirane-2-carboxamide]: the “fold less active than the other (more active) diastereomer” value is reported as ~ 10 ×.

Still in this assay, the particulars now being: read-out: % inhibition at 20 μM.
Take `CC(C)(C)NC(=O)C(c1cccnc1)N(C(=O)C1CO1)c1ccc(C(C)(C)C)cc1` [(R, R)- and (S, S)-38, N-(4-(tert-Butyl)phenyl)-N-(2-(tert-butylamino)-2-oxo-1-(pyridin-3-yl)ethyl)oxirane-2-carboxamide]: the inhibition at 20 µM stood at 21%. Consider `CC(C)(C)c1ccc(N(C(=O)C2CO2)C(C(=O)NCc2ccccc2)c2cccnc2)cc1` [(R, R)- and (S, S)-42, N-(2-(Benzylamino)-2-oxo-1-(pyridin-3-yl)ethyl)-N-(4-(tert-butyl)phenyl)oxirane-2-carboxamide], for which the inhibition at 20 µM came out at 45%.

`CC1OC1C(=O)N(c1ccc(C(C)(C)C)cc1)C(C(=O)NC1CCCCC1)c1cccnc1` [(R, R, S)- and (S, S, R)-35, N-(4-(tert-Butyl)phenyl)-N-(2-(cyclohexylamino)-2-oxo-1-(pyridin-3-yl)ethyl)-3-methyloxirane-2-carboxamide]: the inhibition at 20 µM amounted to 42%. Turning to `O=C(NCc1ccccc1)C(c1cccnc1)N(C(=O)c1ccco1)c1ccc(C2CO2)cc1` (stereo not drawn) [Compound 2, N-(2-(Benzylamino)-2-oxo-1-(pyridin-3-yl)ethyl)-N-(4-(oxiran-2-yl)phenyl)furan-2-carboxamide], the inhibition at 20 µM worked out at 18%. The same measure, in the same setting: next, `C=Cc1ccc(N(C(=O)c2ccco2)C(C(=O)NCc2ccccc2)c2cccnc2)cc1` (stereo not drawn) [Compound 3, N-(2-(Benzylamino)-2-oxo-1-(pyridin-3-yl)ethyl)-N-(4-vinylphenyl)furan-2-carboxamide]: 26%; `CC(C)(C)NC(=O)C(c1cccnc1)N(C(=O)c1ccco1)c1ccc(CC2CO2)cc1` (stereo not drawn) [Compound 4, N-(2-(tert-Butylamino)-2-oxo-1-(pyridin-3-yl)ethyl)-N-(4-(oxiran-2-ylmethyl)phenyl)furan-2-carboxamide]: 10%; `O=C(CCl)Nc1ccc(N(C(=O)c2ccco2)C(C(=O)NCc2ccccc2)c2cccnc2)cc1` (stereo not drawn) [Compound 5, N-(2-(Benzylamino)-2-oxo-1-(pyridin-3-yl)ethyl)-N-(4-(2-chloroacetamido)phenyl)furan-2-carboxamide]: 47%. `O=C(Nc1ccc(N(C(=O)c2ccco2)C(C(=O)NCc2ccccc2)c2cccnc2)cc1)C(Cl)Cl` (stereo not drawn) [Compound 6, N-(2-(Benzylamino)-2-oxo-1-(pyridin-3-yl)ethyl)-N-(4-(2,2-dichloroacetamido)phenyl)furan-2-carboxamide]: the inhibition at 20 µM came to 41%. Turning to `C=CC(=O)Nc1ccc(N(C(=O)c2ccco2)C(C(=O)NCc2ccccc2)c2cccnc2)cc1` (stereo not drawn) [Compound 7, N-(4-Acrylamidophenyl)-N-(2-(benzylamino)-2-oxo-1-(pyridin-3-yl)ethyl)furan-2-carboxamide], the inhibition at 20 µM was found to be 22%. As for `O=C(CCl)Nc1cccc(N(C(=O)c2ccco2)C(C(=O)NCc2ccccc2)c2cccnc2)c1` (stereo not drawn) [Compound 8, N-(2-(Benzylamino)-2-oxo-1-(pyridin-3-yl)ethyl)-N-(3-(2-chloroacetamido)phenyl)furan-2-carboxamide], the inhibition at 20 µM was 47%. With `O=C(Nc1cccc(N(C(=O)c2ccco2)C(C(=O)NCc2ccccc2)c2cccnc2)c1)C(Cl)Cl` (stereo not drawn) [Compound 9, N-(2-(Benzylamino)-2-oxo-1-(pyridin-3-yl)ethyl)-N-(3-(2,2-dichloroacetamido)phenyl)furan-2-carboxamide], the inhibition at 20 µM was 20%. The same measure, in the same setting: as for `C=CC(=O)Nc1cccc(N(C(=O)c2ccco2)C(C(=O)NCc2ccccc2)c2cccnc2)c1` (stereo not drawn) [Compound 10, N-(3-Acrylamidophenyl)-N-(2-(benzylamino)-2-oxo-1-(pyridin-3-yl)ethyl)furan-2-carboxamide], the figure is 5%; as for `Nc1ccc(N(C(=O)c2ccco2)C(C(=O)NCc2ccccc2)c2cccnc2)cc1` (stereo not drawn) [Compound 11, N-(4-Aminophenyl)-N-(2-(benzylamino)-2-oxo-1-(pyridin-3-yl)ethyl)furan-2-carboxamide], 0%; as for `Nc1cccc(N(C(=O)c2ccco2)C(C(=O)NCc2ccccc2)c2cccnc2)c1` (stereo not drawn) [Compound 12, N-(3-Aminophenyl)-N-(2-(benzylamino)-2-oxo-1-(pyridin-3-yl)ethyl)furan-2-carboxamide], 18%.

On to `CC(C)(C)NC(=O)C(c1cccnc1)N(C(=O)CCl)c1ccc(N)cc1` (stereo not drawn) [Compound 20, N-(4-Aminophenyl)-N-(2-(tert-butylamino)-2-oxo-1-(pyridin-3-yl)ethyl)-2-chloroacetamide], for which the inhibition at 20 µM was 12%.

`CC(C)(C)NC(=O)C(c1cccnc1)N(C(=O)CCl)c1cccc(N)c1` (stereo not drawn) [Compound 21, N-(3-Aminophenyl)-N-(2-(tert-butylamino)-2-oxo-1-(pyridin-3-yl)ethyl)-2-chloroacetamide]: the inhibition at 20 µM is 33%. `CC(C)(C)c1ccc(N(C(=O)CCl)C(C(=O)NCc2ccccc2)c2cccnc2)cc1` (stereo not drawn) [Compound 23, N-Benzyl-2-(N-(4-(tert-butyl)phenyl)-2-chloroacetamido)-2-(pyridin-3-yl)acetamide]: the inhibition at 20 µM came to 41%. For `C=CC(=O)N(c1ccc(C(C)(C)C)cc1)C(C(=O)NC1CCCCC1)c1cccnc1` (stereo not drawn) [Compound 29, N-(4-(tert-Butyl)phenyl)-N-(2-(cyclohexylamino)-2-oxo-1-(pyridin-3-yl)ethyl)acrylamide], the inhibition at 20 µM amounted to 30%.
